For twelve compounds, ED50 results are on record in patent US4032529A, “Aminomethanobenzazocine intermediates” (Sterling Drug Inc., priority 1975, dated 1977).

The structures appear in SMILES notation. Structures can show the parent of a compound that is named as a salt.

What is called ED50 is the midpoint of the dose-response relation. A low value points to an effect at a small dose.

The assay relates to acetylcholine-induced writhing in mice. The assay can be described thus: acetylcholine writhing test, a primary screening test for analgesia. Type of assay: in vivo. Conditions: Mus musculus, sc, 20 min; subcutaneous; mice dosed 20 minutes prior to acetylcholine 3.2 mg./kg. intraperitoneal; 2-minute observation; probit analysis. As to the method:
All of the compounds of Formula I of the examples were tested and determined to be active in the acetylcholine writhing test, a primary screening test for analgesia. In this test the ability of test compounds to prevent acetylcholine-induced writhing in mice is determined. The following is an adaptation of the method of Collier and co-workers (Brit. J. Pharmacol. Chemother., 32, 295(1968)) by Anne K. Pierson. […] The mice are dosed with the test compound plus vehicle or vehicle alone (controls) 20 minutes prior to, and are observed for 2 minutes after, the acetylchloine injection. During the 2-minute observation period mice not responding by writhing are scored protected and mice responding by writhing one or more times are scored not protected. The mice are dosed orally (usually at 150-200 mg./kg.) or subcutaneously (usually at 75-100 mg./kg.). Fifteen mice per does level are used. ED50 values for active compounds are calculated by probit analysis (C. I. Bliss, The Statistics of Bioassay, Academic Press, New York, 1952) of quantal scores of tests at four or more appropriate dose levels. The following subcutaneous ED50 values for the compounds of Formula I of the examples were determined.
Background: Writhing tests count abdominal constrictions after an irritant is injected.
Take `C[C@@H]1[C@@H]2Cc3ccc(N)cc3[C@@]1(C)CCN2CC1CC1` (relative stereo) [Example 1B, 8-amino-3-(cyclopropylmethyl)-1,2,3,4,5,6-hexahydro-cis-6,11-dimethyl-2,6-methano-3-benzazocine dihydrochloride]: the median effective dose (ED50) was found to be 0.8 mg/kg.

Take `C[C@@H]1[C@@H]2Cc3ccc(NCC4CC4)cc3[C@@]1(C)CCN2CC1CC1` (relative stereo) [Example 2E, 3-(cyclopropylmethyl)-8-(cyclopropylmethylamino)-1,2,3,4,5,6-hexahydro-cis-6,11-dimethyl-2,6-methano-3-benzazocine hydrochloride]: the 50% effective dose (ED50) was determined as 0.7 mg/kg. The figure for `CNc1ccc2c(c1)[C@@]1(C)CCN(CC3CC3)[C@@H](C2)[C@H]1C` (relative stereo) [Example 3B, 3-(cyclopropylmethyl)-1,2,3,4,5,6-hexahydro-cis-6,11-dimethyl-8-(methylamino)-2,6-methano-3-benzazocine dihydrochloride ethanolate hydrate] is 0.44 mg/kg; for `C[C@@H]1[C@@H]2Cc3ccc(N(C)C)cc3[C@@]1(C)CCN2CC1CC1` (relative stereo) [Example 4F, 3-cyclopropylmethyl-8-dimethylamino-cis-6,11-dimethyl-1,2,3,4,5,6-hexahydro-2,6-methano-3-benzazocine dihydrochloride] it is 0.79 mg/kg. The figure for `CC(C)CN1CC[C@]2(C)c3cc(N)ccc3C[C@H]1[C@H]2C` (relative stereo) [Example 5C, 8-amino-1,2,3,4,5,6-hexahydro-3-isobutyl-cis-6,11-dimethyl-2,6-methano-3-benzazocine dihydrochloride] is 1.5 mg/kg; for `CCCN1CC[C@]2(C)c3cc(N)ccc3C[C@H]1[C@H]2C` (relative stereo) [Example 6C, 8-amino-cis-6,11-dimethyl-1,2,3,4,5,6-hexahydro-3-propyl-2,6-methano-3-benzazocine dihydrochloride sesquihydrate] it is 5.6 mg/kg; for `C[C@@H]1[C@@H]2Cc3ccc(NCc4ccccc4)cc3[C@@]1(C)CCN2CC1CC1` (relative stereo) [Example 7, 3-(cyclopropylmethyl)-1,2,3,4,5,6-hexahydro-cis-6,11-dimethyl-8-benzylamino-2,6-methano-3-benzazocine dihydrochloride] it is 1.6 mg/kg. The figure for `C=CCN1CC[C@]2(C)c3cc(N)ccc3C[C@H]1[C@H]2C` (relative stereo) [Example 8C, 8-amino-1,2,3,4,5,6-hexahydro-cis-6,11-dimethyl-3-(2-propenyl)-2,6-methano-3-benzazocine dihydrochloride] is 2.5 mg/kg. With `CCNc1ccc2c(c1)[C@@]1(C)CCN(CC3CC3)[C@@H](C2)[C@H]1C` (relative stereo) [Example 9B, 3-(cyclopropylmethyl)-8-(ethylamino)-1,2,3,4,5,6-hexahydro-cis-6,11-dimethyl-2,6-methano-3-benzazocine], the ED50 worked out at 1.3 mg/kg. The figure for `CCCNc1ccc2c(c1)[C@@]1(C)CCN(CC3CC3)[C@@H](C2)[C@H]1C` (relative stereo) [Example 10B, 3-(cyclopropylmethyl)-1,2,3,4,5,6-hexahydro-cis-6,11-dimethyl-8-(propylamino)-2,6-methano-3-benzazocine] is 1.2 mg/kg.

For `CCCCNc1ccc2c(c1)[C@@]1(C)CCN(CC3CC3)[C@@H](C2)[C@H]1C` (relative stereo) [Example 11B, 8-(butylamino)-3-(cyclopropylmethyl)-1,2,3,4,5,6-hexahydro-cis-6,11-dimethyl-2,6-methano-3-benzazocine], the 50% effective dose (ED50) was found to be 1 mg/kg. On to `CC[C@@H]1[C@@H]2Cc3ccc(N)cc3[C@@]1(CC)CCN2CC1CC1` (relative stereo) [Example 12H, 8-amino-3-(cyclopropylmethyl)-cis-6,11-diethyl-1,2,3,4,5,6-hexahydro-2,6-methano-3-benzazocine dihydrochloride], for which the 50% effective dose (ED50) came out at 1.3 mg/kg.
